Values belong to the molecule of their own block, whether it stands above or below them.
Assays:
[1] = Water solubility of drugs (saturation concentration by HPLC); format: physicochemical; settings: 100 mM Tris-HCl (pH 7.5); for Water solubility: 25° C., saturation concentration; for Water solubility, relative ratio (numerals in parentheses): relative to TC11
MUM24 MM cell line = experiment: MTT cell proliferation inhibition, MUM24; format: cell-based; settings: Homo sapiens, MUM24, t(4;14), del13, del17, 48 hours, read-out: IC50, cell proliferation inhibitory activity, MUM24
high-risk MM cell lines [2] = experiment: MTT cell proliferation inhibition, panel of high-risk MM cell lines; format: cell-based; settings: Homo sapiens, range over the cell lines of Table 2, 48 hours
Experimental: (§1) For examination of cell proliferation inhibitory activity, high-risk MM cell lines (KMM1, KMS11, KMS21, KMS26, KMS28, KMS34) established by Takemi Otsuki et al., of Kawasaki Medical School were used (Otsuki, T. et al., Int. J. Oncol., 15: 1205-1212, 1999). […] The genetic abnormality of these cell types, and in particular deletion of p53 gene were examined by FISH method (Chang, H. Blood, 105: 358-360, 2005) (WO2010/061862A1). […] These high-risk MM cell lines were treated with drugs such as TC11, HOEtO-TC11, PEG11(E)-TC11, and PEG11(O)-TC11 at arbitrary concentrations. […] Specifically, each high-risk MM cell line was prepared at a concentration of 2×10^5 cells/ml, and then seeded in an amount of 50 μl (1×10^4 cells) per well. After 24 hours, drugs such as TC11, HOEtO-TC11, PEG11(E)-TC11, and PEG11(O)-TC11 having arbitrary concentrations were added. At 48 hours after addition of each drug, 10 μL each of an MTT labeling reagent in Cell Proliferation Kit I [MTT] (Roche Diagnostics, Basel, Switzerland) was added. After 4 hours of treatment at 37° C., 100 μL each of solution buffer was added and then left to stand overnight at 37° C. Absorbance was measured using a microplate reader Infinit™ M1000 (Tecan, Maennedorf, Switzerland) at a wavelength of 570 nm. Cell viability was found from an absorbance ratio using absorbance at 0 μM designated as 100%. IC50 was calculated from a semi-logarithmic chart using Microsoft (registered trademark) Excel.

[3] = tested on: KMS34 high-risk MM cell line; experiment: MTT cell proliferation inhibition, KMS34; format: cell-based; settings: Homo sapiens, KMS-34, KMS34, t(4;14), del17, 48 hours, read-out: IC50, cell proliferation inhibitory activity, KMS34
Experimental: as §1

[4] = tested on: KMS11 high-risk MM cell line; experiment: MTT cell proliferation inhibition, KMS11; format: cell-based; settings: Homo sapiens, KMS-11, KMS11, t(4;14), del17, 48 hours, read-out: IC50, cell proliferation inhibitory activity, KMS11
Experimental: as §1

KMS11 xenograft = experiment: Antitumor effect on KMS11 cancer-bearing mice (Example 17); format: in vivo, ICR/SCID mice
Experimental: KMS11 was administered to 5-week-old ICR/SCID mice at 2×10^7 cells/mouse via hypodermic injection. Tumor volumes were measured over time, and the day on which the tumor volume exceeded 50 mm^3 was designated as Day 1 and observation was performed for 9 days. […] On the day of administration, these solutions were diluted 10-fold with physiological saline while stirring with Vortex, and then intraperitoneally administered. Tumor volume was calculated by the following formula.
Tumor volume (mm^3)=major axis×minor axis×minor axis×π/6=major axis×minor axis×minor axis×0.5236

[5] = tested on: KMM1 high-risk MM cell line; experiment: MTT cell proliferation inhibition, KMM1; format: cell-based; settings: Homo sapiens, KMM-1, KMM1, t(6;14), t(8;14), del17, 48 hours, read-out: IC50, cell proliferation inhibitory activity, KMM1
Experimental: as §1

[6] = tested on: KMS21 high-risk MM cell line; experiment: MTT cell proliferation inhibition, KMS21; format: cell-based; settings: Homo sapiens, KMS21, t(11;14), 48 hours, read-out: IC50, cell proliferation inhibitory activity, KMS21
Experimental: as §1
Moreover, the concentration dependency of the in vitro cell proliferation inhibitory activity of TC11, and its derivatives, PEG11(E)-TC11 and HOEtO-TC11 against high-risk MM cell line (KMS21) was examined in detail (FIG. 4). […] Such a phenomenon was similarly observed for other high-risk MM cell lines, KMS11, KMS34, and MUM24.

cereblon (CRBN) [7] = molecular target: T1, cereblon (CRBN) (Homo sapiens, UniProt Q96SW2); experiment: Surface plasmon resonance biosensor (BIACORE 3000) interaction with cereblon; format: binding; settings: measured at 1 μM, 2 μM and 10 μM, FIG. 9C
T1 construct: recombinant full-length CRBN prepared by the above method was reacted with the beads; T7 tag (N); FLAG tag (C); made in house; host or cells: 293T cells (pcDNA3.3 vector), RIPA extract purified on Ni Sepharose excel
T1 sequence (Q96SW2 whole entry): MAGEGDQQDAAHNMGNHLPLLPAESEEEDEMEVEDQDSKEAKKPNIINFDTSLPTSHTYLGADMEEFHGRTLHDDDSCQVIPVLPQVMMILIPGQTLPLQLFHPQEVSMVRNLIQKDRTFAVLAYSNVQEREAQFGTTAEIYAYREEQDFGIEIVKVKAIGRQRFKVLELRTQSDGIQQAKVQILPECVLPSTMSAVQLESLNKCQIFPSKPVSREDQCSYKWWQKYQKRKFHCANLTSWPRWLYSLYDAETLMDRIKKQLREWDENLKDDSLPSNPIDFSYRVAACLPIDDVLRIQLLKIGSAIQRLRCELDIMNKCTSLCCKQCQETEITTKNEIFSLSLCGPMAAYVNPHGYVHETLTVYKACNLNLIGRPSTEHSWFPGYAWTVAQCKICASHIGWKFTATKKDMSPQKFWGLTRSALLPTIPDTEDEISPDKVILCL

[8] = tested on: KMS26 high-risk MM cell line; experiment: MTT cell proliferation inhibition, KMS26; format: cell-based; settings: Homo sapiens, KMS-26, KMS26, t(4;14), t(4;16), del17, 48 hours, read-out: IC50, cell proliferation inhibitory activity, KMS26
Experimental: as §1

[9] = tested on: KMS21 high-risk MM cell line; experiment: WST-1 cell proliferation inhibition (Example 8), KMS21; format: cell-based; settings: Homo sapiens, WST-1, 48 hours, read-out: IC50, cell proliferation inhibitory activity, KMS21
Experimental: (§2) Similar to Example 7, high-risk MM cell lines were treated with drugs, TC11 and PEG5(E)-TC11 at arbitrary concentrations. […] Specifically, each high-risk MM cell line was prepared at 5×10^5 cells/ml, and then seeded at 50 μl per well (2.5×10^4 cells). Drugs such as TC11, and PEG5(E)-TC11 were added to wells at arbitrary concentrations. WST-1 reagent was added at 48 hours after addition of drugs. After 1 hour of reaction at 37° C. in a CO2 incubator, absorbance was measured at a wavelength of 450 nm using a microplate reader. Cell viability was found from an absorbance ratio using absorbance at 0 μM designated as 100%. IC50 was calculated from a semi-logarithmic chart using Microsoft (registered trademark) Excel.

[10] = tested on: KMM1 high-risk MM cell line; experiment: WST-1 cell proliferation inhibition (Example 8), KMM1; format: cell-based; settings: Homo sapiens, KMM-1, WST-1, 48 hours, read-out: IC50, cell proliferation inhibitory activity, KMM1
Experimental: as §2

[11] = tested on: KMS11 high-risk MM cell line; experiment: WST-1 cell proliferation inhibition (Example 8), KMS11; format: cell-based; settings: Homo sapiens, KMS-11, WST-1, 48 hours, read-out: IC50, cell proliferation inhibitory activity, KMS11
Experimental: as §2

[12] = tested on: KMS34 high-risk MM cell line; experiment: WST-1 cell proliferation inhibition (Example 8), KMS34; format: cell-based; settings: Homo sapiens, KMS-34, WST-1, 48 hours, read-out: IC50, cell proliferation inhibitory activity, KMS34
Experimental: as §2

high-risk MM cell lines [13] = experiment: WST-1 cell proliferation inhibition (Example 8), panel of high-risk MM cell lines; format: cell-based; settings: Homo sapiens; range over the cell lines of Table 3; WST-1, 48 hours
Experimental: as §2

cereblon (CRBN) [14] = molecular target: T1, cereblon (CRBN); experiment: Pull-down assay of cereblon with biotinylated drug on streptavidin beads; format: binding; settings: 30° C., 30 minutes, FIG. 9A
Experimental: CRBN was prepared as follows. A T7 tag was added 5′-upstream of, and a FLAG tag and a histidine tag were added 3′-downstream of a full-length CRBN gene. The gene was introduced into a pcDNA3.3 expression vector (Invitrogen), thereby constructing a plasmid DNA. Next, a Kozak sequence was added 5′-upstream of the T7 tag using a KOD-Plus-Mutagenesis Kit (TOYOBO). The plasmid DNA was transfected into 293T cells. After 4 days of culture at 37° C. with 5% CO2, cells were extracted with a RIPA buffer (Thermo), and then the extracted fraction was purified using Ni Sepharose excel (GE Healthcare). Since the purified fraction contained imidazole, TBS (Nacalai Tesque) was subjected to buffer exchange. […] Centrifugation was performed to separate the resultants into a flow-through (F) fraction and a bead (B) fraction. Protein bands corresponding to CRBN were separated by SDS-PAGE, and then detected by Western blot. […] Note that “I” indicates “Input fraction”.

- Water solubility [1]: 0.082 g/100 ml
- Water solubility, relative ratio (numerals in parentheses) [1]: 41 ×
Compound: CC(C)c1cccc(C(C)C)c1N1C(=O)c2cc(N)c(OCCO[C@@H]3OC(CO)[C@@H](O)[C@H](O)C3O)cc2C1=O (stereo partly drawn) [Glu-TC11]

- Binding to CRBN (SPR sensorgram) (cereblon (CRBN) [7]): never bind to CRBN
- Water solubility [1]: 0.027 g/100 ml
- Water solubility, relative ratio (numerals in parentheses) [1]: 13.5 ×
Compound: CC(C)c1cccc(C(C)C)c1N1C(=O)c2cc(N)c(OCCO)cc2C1=O [HOEtO-TC11, hydroxyethoxy-TC11]
- IC50 (MUM24 MM cell line): 4 µM
- IC50 (high-risk MM cell lines [2]): 1 to 8 µM
- IC50 [3]: 4.1 µM
- IC50 [4]: 3.9 µM
- KMS-11 tumor growth, level relative to the control (KMS11 xenograft; Day 9, HOEtO-TC11 71.1 mg/kg BW i.p.): about ⅓
- KMS-11 tumor growth, level relative to TC11 (KMS11 xenograft; Day 9, HOEtO-TC11 71.1 mg/kg BW i.p. vs TC11 60 mg/kgBW): about a half
- KMS-11 tumor growth compared to control mice (KMS11 xenograft; Day 9, i.p., equimolar to TC11 60 mg/kgBW): tumor growth was suppressed
- IC50 [5]: 7.7 µM
- IC50 [6]: 2.4 µM
- IC50 [8]: 1.9 µM

- Water solubility [1]: 0.002 g/100 ml
- Water solubility, relative ratio (numerals in parentheses) [1]: 1 ×
Compound: COCCOCCOCCOCCOCCC(=O)OCCOc1cc2c(cc1N)C(=O)N(c1c(C(C)C)cccc1C(C)C)C2=O [PEG5(E)-TC11]
- IC50 [9]: 1.2 µM
- IC50 [10]: 3.6 µM
- IC50 [11]: 1.4 µM
- IC50 [12]: 6.5 µM
- IC50 (high-risk MM cell lines [13]): 1.3 to 4.6 µM

Compound: Nc1cccc2c1CN(C1CCC(=O)NC1=O)C2=O (stereo not drawn) [lenalidomide, reference compound]
- In vivo anti-tumor effect compared to HOEtO-TC11 (KMS11 xenograft; lenalidomide 49.9 mg/kgBW i.p., KMS11 xenograft): clearly weaker than that of HOEtO-TC11

- Binding of CRBN to drug immobilized on beads (pull-down, Western blot) (cereblon (CRBN) [14]): bound
Compound: O=C1CCC(N2C(=O)c3ccccc3C2=O)C(=O)N1 (stereo not drawn) [thalidomide]
